# Laboratory results: US10494404B2, “Quinolinium conjugates of cyclosporin” (priority 2014, dated 2019)
# “Also recorded” adds a separate entry of the source.
# Experiments:
# [1] = test system: Ca^2+ mediated PT pore formation; assay: Calcium retention capacity (CRC) assay, isolated WT mouse liver mitochondria; assay type: biochemical
# Description: In order to assess the efficiency of compounds on Ca^2+ mediated PT pore formation we measured calcium retention capacity (CRC) of isolated mouse liver mitochondria. […] Energised mitochondria take up Ca^2+, resulting in a declining fluorescent signal following the Ca^2+ bolus induced peak. Mitochondria take up and buffer Ca^2+ up to a threshold when intramitochondrial [Ca^2+] reaches threshold to induce PT. […] The amount of Ca^2+ required to induce PT characterizes its Ca^2+ sensitivity and defines mitochondrial CRC. Inhibition of CypD, the Ca^2+ sensor of PT, thus leads to increased CRC.
# Further experiments were carried out using the techniques discussed in Example 4.
# Subcellular fractionation was performed as previously described (Astin et al, 2013). […] At 4° C., the liver was rinsed in PBS to remove excess blood, and any fat and connective tissue was eliminated. PBS was then replaced with isolation buffer containing 1 mM PMSF, and the liver was chopped into pieces (approximately 2 mm in length). Tissue was then homogenized in this solution until no solid matter remained, and then centrifuged at 800G for 10 minutes at 4° C. The nuclear pellet was then discarded, and the post nuclear supernatant retained, and centrifuged at 10300G for another 10 minutes at 4° C. The postmitochondrial supernatant was discarded, and the mitochondrial pellet was resuspended in isolation buffer and PMSF, and kept on ice. Protein levels were quantified using a ThermoScientific BCA protein quantification assay, as per manufacturer's instructions.
# Isolated mitochondria were resuspended (500 μg protein/ml) in MSK buffer (75 mM mannitol, 25 mM sucrose, 5 mM potassium phosphate monobasic, 20 mM Tris-HCl, 100 mM KCl, and 0.1% bovine serum albumin, pH 7.4) supplemented with 10 mM succinate, 1 μM rotenone and 1 μM Fluo5N. 200 μl mitochondrial suspension per well was used in 96 well microplates. Compounds were incubated for ten minutes before the plate was assayed in a Fluostar Optima plate reader, using Ex/Em filters at 480/520 […]; CaCl2 was injected approximately every 6.5 minutes for 80 minutes (12 total injections, final concentration of 75 μM). To calculate % inhibition of Ca^2+ induced pore opening, first areas under each curve were calculated, and controls without CaCl2 addition were subtracted as background. The background corrected values were then expressed as the fraction of controls without mitochondria, representing the total amount of Ca^2+ added, unbuffered by mitochondria. Percentage inhibition for each [compound] was then calculated as the % of the corresponding value for the untreated condition. […] For experiments with CypD −/− mice, 100 ul mitochondrial suspension per well was used. CaCl2) was injected approximately every 6.5 minutes for 135 minutes (20 total injections, final concentration of 266 μM). Data were background corrected and expressed as the fraction of controls without mitochondria, and then normalised to the wild type no drug condition. Significance was assessed by one way ANOVA.
# [2] = test system: experimental autoimmune encephalomyelitis (EAE); assay: Relapsing-progressive experimental autoimmune encephalomyelitis (EAE) in ABH mice; assay type: in vivo, mouse
# Procedure: ABH mice were injected with 1 mg mouse spinal cord homogenate in Freund's adjuvant on days 0 and 7 post-induction to induce EAE and this was repeated on day 28 post-induction to induce a relapse.
# Animals were monitored for the development of clinical disease and the results in FIG. 1 represent the mean daily clinical score after induction of relapse.
# Mice were injected subcutaneously (s.c.) with 1 mg freeze-dried mouse spinal cord homogenate (SCH) in Freunds adjuvant on day zero and seven as described previously (Al-Izki et al, 2012a). After the initial paralytic disease and subsequent remission, a relapse was induced by a further injection of SCH in Freunds incomplete adjuvant on day 28 to induce a relapse 7 days later (Al-Izki et al, 2012a). Studies were randomised, blinded and powered as described previously (Al-Izki et al, 2012a). Neurological scores were graded as 0=normal; 1=limp tail, 2=impaired righting reflex, 3=hindlimb paresis, 4=complete hindlimb paralysis, and 5=moribund/death (Al-Izki et al, 2012a). Results are expressed as mean±SEM maximum or minimum neurological score and mean day of onset±SD. Differences between groups were assessed using Mann Whitney U statistics (Al-Izki et al, 2012a). Motor control and co-ordination was assessed on an accelerating (4-40 rpm, accelerating at 6 rpm/25 s) RotaRod (ENV-575M, Med Associates Inc, St. Albans, Vt., USA) as described previously (Al-Izki et al, 2012a). This was performed one day before induction of relapse and at the termination of the experiment on day 45. RotaRod assessment was performed blinded to treatment. Animals were randomised to vehicle or treatment based on their RotaRod scores. Results are expressed as mean±SEM time that animals maintained rotarod activity. Differences between groups were assessed using Students t test, incorporating a test for equality of variance and normality (Al-Izki et al, 2012a). At the end of the experiment the spinal cord was removed and an enzyme linked immunosorbent assay (ELISA) for heavy chain neurofilament on spinal cord was performed and total nerve content of each spinal cord was estimated following calibration against neurofilament protein standards as described previously (Jackson et al, 2005); (Al-Izki et al, 2012a).
# Neurofilament level as a correlate of spinal cord axonal content was determined as followed. Spinal cords were collected from the spinal columns of untreated (n=11) and Compound 11 mg/kg treated (n=13) animals at the second remission phase of disease post relapse at day 45 post disease induction. Tissues snap frozen and stored at −80° C. prior to homogenisation. Tissues were homogenised in a glass homogeniser in 1 ml/100 mg of spinal cord tissue wet weight homogenisation buffer (0.2 mM PMSF, 1 mM EDTA, 1 mM EGTA, 4M Urea, 10 mM Tris-HCl Sigma UK, pH 7.2,) plus 1:100 HALT protease inhibitor cocktail (Thermo Fisher, UK) and further homogenised by sonication twice for 10 seconds (Cole-Parmer Instruments, USA). Samples were spun down at 13,000 rpm in a bench top centrifuge (Eppendorf, UK) and the supernatant was collected and stored at −80° C. prior to neurofilament determination. Samples were thawed on ice and an enzyme linked immunosorbent assay for heavy chain neurofilament was performed. Briefly, a 96 well plate was coated overnight at 4° C. with capture antibody (1:5000 SMI-35 anti-neurofilament H. Covance Inc. Cambridge Bioscience, Cambridge, UK) in coating buffer (0.15M Na2CO3, 0.35M NaHCO3, Sigma, UK, pH 9.6. Following one wash in wash buffer (150 mM NaCl, 10 mM Tris-HCl, 0.1% Tween 20, Sigma, UK pH 7.5), non-specific binding was blocked by incubation with 5% bovine serum albumin (Sigma, UK) in wash buffer for 1 hour at room temperature. Following a wash step, samples and standards (Porcine neurofilament heavy chain, Chemicon International, UK) were diluted in wash buffer with 1% bovine serum albumin and incubated on the plate for 1 hour at room temperature. […]
smiles,measurement,setting,value
"CC[C@@H]1NC(=O)[C@H]([C@H](O)[C@H](C)C/C=C/CCC[n+]2cccc3ccccc32)N(C)C(=O)[C@H](C(C)C)N(C)C(=O)[C@H](CC(C)C)N(C)C(=O)[C@H](CC(C)C)N(C)C(=O)[C@@H](C)NC(=O)[C@H](C)NC(=O)[C@H](CC(C)C)N(C)C(=O)[C@H](C(C)C)NC(=O)[C@H](CC(C)C)N(C)C(=O)CN(C)C1=O [Compound 1, [Gly-(1S,2R,E)-8-quinolinium-1-hydroxy-2-methyloct-4-ene]^1 CsA]",inhibition of Ca2+ mediated PT pore formation,[1]; 8 nM,[…]
same,mean daily clinical score after induction of relapse,[2]; 1 mg/kg i.p. daily from day 33,inhibits the accumulation of neurological deficit; also recorded: has neuroprotective properties
same,loss of axons within the spinal cord,"[2]; 1 mg/kg i.p., vs vehicle",lost significantly (P<0.01) less nerves (FIG. 7B) and axons
same,loss of motor co-ordination,"[2]; 1 mg/kg i.p., vs vehicle",significantly (P<0.001) less loss of motor co-ordination
same,loss of nerves within the spinal cord (neurofilament ELISA),"[2]; 1 mg/kg i.p., vs vehicle",lost significantly (P<0.01) less nerves
same,rotarod activity (time on accelerating rotarod),"[2]; day 27, first remission, before treatment",168.8 ± 21.8 s
same,rotarod activity (time on accelerating rotarod),"[2]; second remission after relapse (day 45), 1 mg/kg i.p.",135.0 ± 42.9 s
